Consider three compounds from ChEMBL document CHEMBL1150662, “A new digalactosyl diacylglycerol from a cultured marine dinoflagellate Heterocapsa circularisquama” (J Nat Prod, 2002).

The data set is described as follows: Cytotoxicity against oysters heart cells at 0.5 ug/ml. Type of data set: cell-based. As to conditions: ostreidae.

For the compound `CC/C=C\C/C=C\C/C=C\C/C=C\C/C=C\CC(=O)OC[C@H](CO[C@@H]1O[C@H](CO)[C@H](O)[C@H](O)[C@H]1O)OC(=O)C/C=C\C/C=C\C/C=C\C/C=C\C/C=C\CC`, the Activity entry is given as “Toxic”.

Regarding `CC/C=C\C/C=C\C/C=C\C/C=C\C/C=C\CC(=O)OC[C@H](CO[C@@H]1O[C@H](CO[C@H]2O[C@H](CO)[C@H](O)[C@H](O)[C@H]2O)[C@H](O)[C@H](O)[C@H]1O)OC(=O)CCCC/C=C\C/C=C\C/C=C\C/C=C\CC`, the Activity result is listed as “Toxic”.

As for `CC/C=C\C/C=C\C/C=C\C/C=C\C/C=C\CC(=O)OC[C@H](CO[C@@H]1O[C@H](CO)[C@H](O)[C@H](O)C1O)OC(=O)CCCC/C=C\C/C=C\C/C=C\C/C=C\CC` (single isomer, unassigned), the Activity result is listed as “Toxic”.
